Experimental data: ChEMBL document CHEMBL6134907, “Synthesis of 5,9- and 5,8-Diaminoalkoxy Substituted Benzophenanthridinone Analogues as Tyrosyl-DNA Phosphodiesterase 1 Inhibitors and Their Radiosensitizing Activity” (J Med Chem, 2025)
Active and inactive are the calls of the source. No cut-off for these calls is given here.

Assays:
[1] = molecular target: Tyrosyl-DNA phosphodiesterase 1 (Homo sapiens, UniProt Q9NUW8); test: Inhibition of recombinant TDP1 (unknown origin) assessed as substrate cleavage using 5'-Cy5-GATCTAAAAGACTT-pY-3' DNA substrate measured after 15 mins by gel-based assay
HCT-116 [2] = test: Cytotoxicity against human HCT116 cells assessed as cell killing at 0.5 uM relative to control; format: functional
HCT-116 [3] = test: Synergistic cytotoxicity against human HCT116 cells assessed as combination index at 5 uM incubated for 48 hrs in presence of 2GY ionizing radiation (IR); format: functional
RKO = test: Synergistic cytotoxicity against human RKO cells assessed as combination index at 5 uM incubated for 48 hrs in presence of 2GY ionizing radiation (IR); format: functional
A549 = test: Radiosensitizing activity in human A549 cells assessed as sensitization of 2 GY ionizing radiation induced decrease in cell survival by colony formation assay; format: functional, cell-based
[4] = Acute toxicity in Kunming mouse assessed as survival at 150 to 600 mg/kg, ip single dose measured after 7 days; format: organism-based; details: in vivo, 168 h, dose 150-600 mg/kg, time 7 day
[5] = Half life in male Sprague-Dawley rat at 1 mg/kg, iv measured up to 24 hrs by LCMS-MS analysis; format: ADME, organism-based; details: in vivo
[6] = AUC infinity in male Sprague-Dawley rat at 5 mg/kg, IG measured up to 24 hrs by LCMS-MS analysis; format: ADME, organism-based; details: in vivo, po
[7] = Half life in male Sprague-Dawley rat at 5 mg/kg, IG measured up to 24 hrs by LCMS-MS analysis; format: ADME, organism-based; details: in vivo, po
HCT-116 [8] = test: Anti-tumor activity against human HCT-116 cells xenografted in BALB/c mouse assessed as tumor growth inhibition at 1 mg/kg, ip every day for 14 days; format: functional, organism-based; details: time 14.0 day
HCT-116 [9] = test: Anti-tumor activity against human HCT-116 cells xenografted in BALB/c mouse assessed as tumor growth inhibition at 10 mg/kg, ip every day for 14 days; format: functional, organism-based; details: time 14.0 day
[10] = Toxicity in BALB/c mouse xenografted with human HCT-116 cells assessed as change in lung weight at 1 to 10 mg/kg, ip every day for 14 days; format: organism-based; details: in vivo, 336 h, dose 1-10 mg/kg, time 14 day
[11] = Toxicity in BALB/c mouse xenografted with human HCT-116 cells assessed as change in lung weight at 1 to 10 mg/kg, ip every day for 14 days radiated for every 2 days once; format: organism-based; details: in vivo, 336 h, dose 1-10 mg/kg, time 14 day
HCT-116 [12] = test: Synergistic cytotoxicity against human SgTDP1-HCT-116 cells (TDP1 knockout) assessed as combination index at 1 uM incubated for 48 hrs in presence of 2GY ionizing radiation; format: functional
[13] = Suppression of ionizing radiation (IR) induced DNA damage in human SgTDP1-HCT-116 cells (TDP1 knockout) assessed as NHEJ repair activity by measuring GFP positive cells at 1 uM measured after 24 hrs by flow cytometry (reference value: 100%); format: functional
HCT-116 [14] = test: Reduction of XRCC4 expression in wild type human HCT-116 cells assessed as reduction in mRNA level at 5 to 10 uM measured after 24 hrs by qRT-PCR analysis; format: functional, cell-based; details: dose 5-10 µM
HCT-116 [15] = test: Effect on Lig4 expression in wild type human HCT-116 cells assessed as change in mRNA level at 5 to 10 uM radiated with 4 GY ionizing radiation (IR) measured after 24 hrs by qRT-PCR analysis; format: functional, cell-based; details: dose 5-10 µM
HCT-116 [16] = test: Effect on Lig4 expression in wild type human HCT-116 cells assessed as change in protein level at 5 to 10 uM radiated with 4 GY ionizing radiation (IR) measured after 24 hrs by Western blot analysis; format: functional, cell-based; details: dose 5-10 µM
HCT-116 [17] = test: Reduction in recruitment of XRCC4 at damage site of human HCT-116 cells at 5 uM radiated with 4 GY ionizing radiation (IR) measured after 3 hrs by fluorescence colocalization assay; format: functional, cell-based
HCT-116 [18] = test: Induction of gamma-H2AX level in human HCT-116 cells at 5 uM measured after 3 hrs by Western blot analysis; format: functional, cell-based
HCT-116 [19] = test: Induction of PIG3 transcription level in human HCT-116 cells measured after 24 hrs; format: functional, cell-based
HCT-116 [20] = test: Upregulation of p53 signaling pathway in human HCT-116 cells at 5 uM measured after 24 hrs by KEGG analysis; format: functional, cell-based
HCT-116 [21] = test: Induction of PIG3 expression in human HCT-116 cells xenografted BALB/c mouse tumor at 5 to 10 mg/kg, ip every day for 14 days by immunohistochemical analysis; format: functional, organism-based; details: dose 5-10 mg/kg, time 14.0 day
HCT-116 [22] = test: Effect on ROS generation in human HCT-116 cells assessed as increase in intracellular ROS level at 5 to 10 uM measured after 20 mins by ELIASA analysis; format: functional, cell-based; details: dose 5-10 µM
HCT-116 [23] = test: Induction of cell cycle arrest in human HCT-116 cells assessed as accumulation of cells at S phase at 5 uM measured after 24 hrs by Propidium iodide (PI) staining based assay (reference value: 13.96%); format: functional
HCT-116 [24] = test: Induction of cell cycle arrest in human HCT-116 cells assessed as accumulation of cells at G2/M phase at 10 uM measured after 24 hrs by Propidium iodide (PI) staining based assay (reference value: 15.77%); format: functional
[25] = Induction of 4GY ionizing radiation (IR) induced cell cycle arrest in human HCT-116 cells assessed as accumulation of cells at G0/G1 phase at 5 uM measured after 24 hrs by Propidium iodide (PI) staining based assay (reference value: 65.99%); format: functional
[26] = Induction of 4GY ionizing radiation (IR) induced cell cycle arrest in human HCT-116 cells assessed as accumulation of cells at G2/M phase at 5 uM measured after 24 hrs by Propidium iodide (PI) staining based assay (reference value: 20.51%); format: functional
[27] = Induction of 4GY ionizing radiation (IR) induced cell cycle arrest in human HCT-116 cells assessed as accumulation of cells at G0/G1 phase at 10 uM measured after 24 hrs by Propidium iodide (PI) staining based assay (reference value: 65.99%); format: functional
HCT-116 [28] = test: Induction of apoptosis in human HCT-116 cells assessed as early apoptotic cells at 10 uM measured after 24 hrs by FITC Annexin V/PI apoptosis detection assay (reference value: 0.26%); format: functional
HCT-116 [29] = test: Induction of apoptosis in human HCT-116 cells assessed as early apoptotic cells at 5 uM measured after 24 hrs by FITC Annexin V/PI apoptosis detection assay (reference value: 0.26%); format: functional
HCT-116 [30] = test: Induction of apoptosis in human HCT-116 cells assessed as viable cells at 10 uM measured after 24 hrs by FITC Annexin V/PI apoptosis detection assay (reference value: 99.71%); format: functional; details: read-out: Activity
HCT-116 [31] = test: Induction of 4GY ionizing radiation (IR) induced apoptosis in human HCT-116 cells assessed as early apoptotic cells at 10 uM measured after 24 hrs by FITC Annexin V/PI apoptosis detection assay (reference value: 17.50%); format: functional
HCT-116 [32] = test: Induction of 4GY ionizing radiation (IR) induced apoptosis in human HCT-116 cells measured after 24 hrs by TUNEL staining based analysis; format: functional, cell-based; details: dose 5-10 µM

Chain of Tyrosyl-DNA phosphodiesterase 1 (Q9NUW8 whole entry): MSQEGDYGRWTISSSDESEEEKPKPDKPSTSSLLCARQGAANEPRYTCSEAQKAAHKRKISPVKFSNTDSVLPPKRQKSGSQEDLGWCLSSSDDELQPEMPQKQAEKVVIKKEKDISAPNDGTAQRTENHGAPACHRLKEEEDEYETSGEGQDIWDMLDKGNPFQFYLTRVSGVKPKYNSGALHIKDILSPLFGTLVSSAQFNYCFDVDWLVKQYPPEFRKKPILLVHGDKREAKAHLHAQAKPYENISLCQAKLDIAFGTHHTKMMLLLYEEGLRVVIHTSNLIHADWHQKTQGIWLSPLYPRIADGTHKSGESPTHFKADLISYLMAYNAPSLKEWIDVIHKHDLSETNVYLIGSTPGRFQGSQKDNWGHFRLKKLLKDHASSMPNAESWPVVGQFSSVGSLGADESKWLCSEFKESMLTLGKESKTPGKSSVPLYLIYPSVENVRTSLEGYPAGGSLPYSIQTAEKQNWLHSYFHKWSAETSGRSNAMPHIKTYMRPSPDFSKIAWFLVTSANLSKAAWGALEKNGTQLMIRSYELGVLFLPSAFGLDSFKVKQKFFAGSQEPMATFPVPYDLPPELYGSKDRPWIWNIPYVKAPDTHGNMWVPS

Question: With `COc1cc2c(=O)n(CCN(C)C)c3c4cc5c(cc4ccc3c2cc1OCCN1CCOCC1)OCO5` as the molecule, how does the IC50 [1] read?
Answer: 7.8 µM

Question: And the Activity (HCT-116 [2])?
Answer: 11%

Question: What about the CI (HCT-116 [3]) of the same molecule?
Answer: <0.3

Question: And the CI (RKO)?
Answer: <0.3

Question: And the Activity (A549)?
Answer: inactive

Question: And the Activity [4]?
Answer: Non-toxic

Question: What about the half-life [5] of the same molecule?
Answer: 2.86 h

Question: And the AUC(0-inf) [6]?
Answer: 0.735 µg·h/mL

Question: What about the half-life [7] of the same molecule?
Answer: 4.64 h

Question: And the TGI (HCT-116 [8])?
Answer: inactive

Question: And the TGI (HCT-116 [9])?
Answer: inactive

Question: And the Activity [10]?
Answer: Non-toxic

Question: And the Activity [11]?
Answer: Non-toxic

Question: What about the CI (HCT-116 [12]) of the same molecule?
Answer: 0.46

Question: And the Activity [13]?
Answer: 7%

Question: And the Activity (HCT-116 [14])?
Answer: Active

Question: What about the Activity (HCT-116 [15]) of the same molecule?
Answer: inactive

Question: And the Activity (HCT-116 [16])?
Answer: inactive

Question: And the Activity (HCT-116 [17])?
Answer: Active

Question: And the Activity (HCT-116 [18])?
Answer: Active

Question: And the Activity (HCT-116 [19])?
Answer: Dose-dependent-effect

Question: And the Activity (HCT-116 [20])?
Answer: Active

Question: What about the Activity (HCT-116 [21]) of the same molecule?
Answer: Active

Question: What about the Activity (HCT-116 [22]) of the same molecule?
Answer: inactive

Question: What about the Activity (HCT-116 [23]) of the same molecule?
Answer: 10.9%

Question: And the Activity (HCT-116 [24])?
Answer: 25.64%

Question: What about the Activity [25] of the same molecule?
Answer: 44.18%

Question: And the Activity [26]?
Answer: 43.13%

Question: And the Activity [27]?
Answer: 20.79%

Question: And the Activity (HCT-116 [28])?
Answer: 13.24%

Question: And the Activity (HCT-116 [29])?
Answer: 14.89%

Question: What about the viability at 10 µM (HCT-116 [30]) of the same molecule?
Answer: 72.1%

Question: What about the Activity (HCT-116 [31]) of the same molecule?
Answer: 19.85%

Question: What about the Activity (HCT-116 [32]) of the same molecule?
Answer: Dose-dependent-effect
